According to patent US12428406B2 (PMV Pharmaceuticals, Inc., priority 2019, dated 2025):

biological target: T1, p53 Y220C (Homo sapiens, UniProt P04637, Y220C); assay: In vitro DNA binding activity assay (HTRF / TR-FRET): stabilization of p53 Y220C and increase of its DNA binding activity; format: biochemical; details: recombinant His-tagged p53 Y220C DNA binding domain (aa 94-312), biotin-labeled consensus DNA, incubated at 27° C. or 29° C. for 60 min
T1 construct: The recombinant protein was a truncation mutant containing only amino acids 94-312 of p53; made in house; host or cells: E. coli
T1 sequence (P04637 94-312, change not shown): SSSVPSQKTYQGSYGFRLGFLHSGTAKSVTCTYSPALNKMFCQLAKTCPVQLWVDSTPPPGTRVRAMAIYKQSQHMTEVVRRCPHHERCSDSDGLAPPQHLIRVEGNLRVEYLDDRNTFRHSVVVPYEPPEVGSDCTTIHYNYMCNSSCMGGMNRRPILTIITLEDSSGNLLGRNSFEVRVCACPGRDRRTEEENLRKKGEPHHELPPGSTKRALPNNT
Outline: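 His-tagged p53 Y220C, E. coli-expressed, binding biotin-labeled consensus DNA measured by HTRF (anti-His-APC, streptavidin-europium). Compounds from 4.5 mM DMSO stocks, 3-fold serial dilutions; incubations at room temperature 15 min, then 20 min. SC150 = concentration raising DNA binding by 50%.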

SMILES | SC150 (concentration of the compound required to increase the DNA binding activity by 50%)
CC(C)C(=O)N(CC#Cc1cc2c(N[C@H]3CC[C@H](N4CC5(COC5)C4)CC3)cccc2n1CC(F)(F)F)c1ccc(S(C)(=O)=O)cc1O [Compound 218A, N-(2-hydroxy-4-methanesulfonylphenyl)-2-methyl-N-[3-(4-{[(1R,4R)-4-{2-oxa-6-azaspiro[3.3]heptan-6-yl}cyclohexyl]amino}-1-(2,2,2-trifluoroethyl)-1H-indol-2-yl)prop-2-yn-1-yl]propanamide] | ++++ (++++ = 0.2 μM ≤ SC150 < 1 μM)
COCCOc1cc(S(C)(=O)=O)ccc1NCC#Cc1cc2c(N[C@H]3CC[C@H](N4CC5(COC5)C4)CC3)cccc2n1CC(F)(F)F [Compound 220A, 2-(3-{[4-methane-sulfonyl-2-(2-methoxyethoxy)phenyl]amino}prop-1-yn-1-yl)-N-[(1R,4R)-4-{2-oxa-6-azaspiro[3.3]heptan-6-yl}cyclohexyl]-1-(2,2,2-trifluoroethyl)-1H-indol-4-amine] | + (+ = 0 μM ≤ SC150 < 0.05 μM)
COCCOc1cc(S(C)(=O)=O)ccc1NCC#Cc1cc2c(N[C@H]3CC[C@@H](N4CC5(COC5)C4)CC3)cccc2n1CC(F)(F)F [Compound 221A, 2-(3-{[4-methane-sulfonyl-2-(2-methoxyethoxy)phenyl]amino}prop-1-yn-1-yl)-N-[(1S,4S)-4-{2-oxa-6-azaspiro[3.3]heptan-6-yl}cyclohexyl]-1-(2,2,2-trifluoroethyl)-1H-indol-4-amine] | + (+ = 0 μM ≤ SC150 < 0.05 μM)
CS(=O)(=O)c1ccc(NCC#Cc2cc3c(N[C@H]4CC[C@H](N5CC6(COC6)C5)CC4)cccc3n2CC(F)(F)F)c(OCC#N)c1 [Compound 222A, 2-(5-methanesulfonyl-2-{[3-(4-{[(1R,4R)-4-{2-oxa-6-azaspiro[3.3]heptan-6-yl}cyclo-hexyl]amino}-1-(2,2,2-trifluoroethyl)-1H-indol-2-yl)prop-2-yn-1-yl]amino}phenoxy) acetonitrile] | + (+ = 0 μM ≤ SC150 < 0.05 μM)
CS(=O)(=O)c1ccc(NCC#Cc2cc3c(N[C@H]4CC[C@@H](N5CC6(COC6)C5)CC4)cccc3n2CC(F)(F)F)c(OCC#N)c1 [Compound 223A, 2-(5-methanesulfonyl-2-{[3-(4-{[(1S,4S)-4-{2-oxa-6-azaspiro[3.3]heptan-6-yl}cyclo-hexyl]amino}-1-(2,2,2-trifluoroethyl)-1H-indol-2-yl)prop-2-yn-1-yl]amino}phenoxy) acetonitrile] | + (+ = 0 μM ≤ SC150 < 0.05 μM)
CC(C)C(=O)Oc1cc(S(C)(=O)=O)ccc1NCC#Cc1cc2c(N[C@H]3CC[C@@H](N4CC5(COC5)C4)CC3)cccc2n1CC(F)(F)F [Compound 224A, 5-methanesulfonyl-2-{[3-(4-{[(1S,4S)-4-{2-oxa-6-azaspiro[3.3]heptan-6-yl}cyclohexyl]amino}-1-(2,2,2-trifluoroethyl)-1H-indol-2-yl)prop-2-yn-1-yl]amino}phenyl 2-methylpropanoate] | + (+ = 0 μM ≤ SC150 < 0.05 μM)
CS(=O)(=O)c1ccc(NCC#Cc2cc3c(N[C@H]4CC[C@H](N5CC6(COC6)C5)CC4)cccc3n2CC(F)(F)F)c(OCCO)c1 [Compound 225A, 2-(5-methanesulfonyl-2-{[3-(4-{[(1R,4R)-4-{2-oxa-6-azaspiro[3.3]heptan-6-yl}cyclo-hexyl]amino}-1-(2,2,2-trifluoroethyl)-1H-indol-2-yl)prop-2-yn-1-yl]amino}phenoxy)ethan-1-ol] | + (+ = 0 μM ≤ SC150 < 0.05 μM)
CS(=O)(=O)c1ccc(NCC#Cc2cc3c(N[C@H]4CC[C@@H](N5CC6(COC6)C5)CC4)cccc3n2CC(F)(F)F)c(OCCO)c1 [Compound 226A, 2-(5-methanesulfonyl-2-{[3-(4-{[(1S,4S)-4-{2-oxa-6-azaspiro[3.3]heptan-6-yl}cyclo-hexyl]amino}-1-(2,2,2-trifluoroethyl)-1H-indol-2-yl)prop-2-yn-1-yl]amino}phenoxy)ethan-1-ol] | + (+ = 0 μM ≤ SC150 < 0.05 μM)
CC(C)C(=O)Oc1cc(S(C)(=O)=O)ccc1NCC#Cc1cc2c(N[C@H]3CC[C@H](N4CC5(COC5)C4)CC3)cccc2n1CC(F)(F)F [Compound 228A, 5-methanesulfonyl-2-{[3-(4-{[(1R,4R)-4-{2-oxa-6-azaspiro[3.3]heptan-6-yl}cyclohexyl]amino}-1-(2,2,2-trifluoroethyl)-1H-indol-2-yl)prop-2-yn-1-yl]amino}phenyl 2-methylpropanoate] | + (+ = 0 μM ≤ SC150 < 0.05 μM)
CNC(=O)c1ccc(NCC#Cc2cc3c(N[C@H]4CC[C@H](N5CC6(COC6)C5)CC4)cccc3n2CC(F)(F)F)c(OC)c1 [Compound 229A, 3-methoxy-N-methyl-4-{[3-(4-{[(1R,4R)-4-{2-oxa-6-azaspiro[3.3]heptan-6-yl}cyclohexyl]amino}-1-(2,2,2-trifluoroethyl)-1H-indol-2-yl)prop-2-yn-1-yl]amino}benzamide] | + (+ = 0 μM ≤ SC150 < 0.05 μM)
CNC(=O)c1ccc(NCC#Cc2cc3c(N[C@H]4CC[C@@H](N5CC6(COC6)C5)CC4)cccc3n2CC(F)(F)F)c(OC)c1 [Compound 230A, 3-methoxy-N-methyl-4-{[3-(4-{[(1S,4S)-4-{2-oxa-6-azaspiro[3.3]heptan-6-yl}cyclo-hexyl]amino}-1-(2,2,2-trifluoroethyl)-1H-indol-2-yl)prop-2-yn-1-yl]amino}benzamide] | + (+ = 0 μM ≤ SC150 < 0.05 μM)
CS(=O)(=O)c1ccc(NCC#Cc2cc3c(N[C@H]4CC[C@H](N5CC6(COC6)C5)CC4)cccc3n2CC(F)(F)F)c(OCC(F)(F)F)c1 [Compound 231A, 2-(3-{[4-methane-sulfonyl-2-(2,2,2-trifluoro-ethoxy)phenyl]amino}prop-1-yn-1-yl)-N-[(1R,4R)-4-{2-oxa-6-azaspiro[3.3]heptan-6-yl}cyclohexyl]-1-(2,2,2-trifluoroethyl)-1H-indol-4-amine] | + (+ = 0 μM ≤ SC150 < 0.05 μM)

Results, then the compound that gave them:

SC150 (concentration of the compound required to increase the DNA binding activity by 50%) | SMILES
+ (+ = 0 μM ≤ SC150 < 0.05 μM) | CS(=O)(=O)c1ccc(NCC#Cc2cc3c(N[C@H]4CC[C@@H](N5CC6(COC6)C5)CC4)cccc3n2CC(F)(F)F)c(OCC(F)(F)F)c1 [Compound 232A, 2-(3-{[4-methane-sulfonyl-2-(2,2,2-trifluoro-ethoxy)phenyl]amino}prop-1-yn-1-yl)-N-[(1S,4S)-4-{2-oxa-6-azaspiro[3.3]heptan-6-yl}cyclohexyl]-1-(2,2,2-trifluoroethyl)-1H-indol-4-amine]
++ (++ = 0.05 μM ≤ SC150 < 0.1 μM) | CS(=O)(=O)c1ccc(OCC#Cc2cc3c(N[C@H]4CC[C@@H](N5CC6(COC6)C5)CC4)cccc3n2CC(F)(F)F)c(N)c1 [Compound 233A, 2-[3-(2-amino-4-methanesulfonyl-phenoxy)prop-1-yn-1-yl]-N-[(1S,4S)-4-{2-oxa-6-azaspiro[3.3]heptan-6-yl}cyclohexyl]-1-(2,2,2-trifluoroethyl)-1H-indol-4-amine]
+ (+ = 0 μM ≤ SC150 < 0.05 μM) | CCOc1cc(S(C)(=O)=O)ccc1NCC#Cc1cc2c(N[C@H]3CC[C@H](N4CC5(COC5)C4)CC3)cccc2n1CC(F)(F)F [Compound 234A, 2-{3-[(2-ethoxy-4-methanesulfonylphenyl)amino]prop-1-yn-1-yl}-N-[(1R,4R)-4-{2-oxa-6-azaspiro[3.3]heptan-6-yl}cyclohexyl]-1-(2,2,2-trifluoroethyl)-1H-indol-4-amine]
+ (+ = 0 μM ≤ SC150 < 0.05 μM) | CCOc1cc(S(C)(=O)=O)ccc1NCC#Cc1cc2c(N[C@H]3CC[C@@H](N4CC5(COC5)C4)CC3)cccc2n1CC(F)(F)F [Compound 235A, 2-{3-[(2-ethoxy-4-methanesulfonyl-phenyl)amino]prop-1-yn-1-yl}-N-[(1S,4S)-4-{2-oxa-6-azaspiro[3.3]heptan-6-yl}cyclo-hexyl]-1-(2,2,2-trifluoroethyl)-1H-indol-4-amine]
+ (+ = 0 μM ≤ SC150 < 0.05 μM) | CNC(=O)c1ccc(NCC#Cc2cc3c(N[C@H]4CC[C@H](N5CC6(COC6)C5)CC4)cccc3n2CC(F)(F)F)c(OCCOC)c1 [Compound 236A, 3-(2-methoxyethoxy)-N-methyl-4-{[3-(4-{[(1R,4R)-4-{2-oxa-6-azaspiro[3.3]heptan-6-yl}cyclohexyl]amino}-1-(2,2,2-trifluoroethyl)-1H-indol-2-yl)prop-2-yn-1-yl]amino} benzamide]
+ (+ = 0 μM ≤ SC150 < 0.05 μM) | CNC(=O)c1ccc(NCC#Cc2cc3c(N[C@H]4CC[C@@H](N5CC6(COC6)C5)CC4)cccc3n2CC(F)(F)F)c(OCCOC)c1 [Compound 237A, 3-(2-methoxyethoxy)-N-methyl-4-{[3-(4-{[(1S,4S)-4-{2-oxa-6-azaspiro[3.3]heptan-6-yl}cyclohexyl]amino}-1-(2,2,2-trifluoroethyl)-1H-indol-2-yl)prop-2-yn-1-yl]amino} benzamide]
+ (+ = 0 μM ≤ SC150 < 0.05 μM) | CCNC(=O)c1ccc(NCC#Cc2cc3c(N[C@H]4CC[C@@H](N5CC6(COC6)C5)CC4)cccc3n2CC(F)(F)F)c(OC)c1 [Compound 238A, N-ethyl-3-methoxy-4-{[3-(4-{[(1R,4R)-4-{2-oxa-6-azaspiro[3.3]heptan-6-yl}cyclohexyl]amino}-1-(2,2,2-trifluoro-ethyl)-1H-indol-2-yl)prop-2-yn-1-yl]amino} benzamide]
